{
  "source": "the kinase profiling compilation of Christmann-Franck et al. (2016)",
  "data": [
    {"biological_target": "AKT2 (human) (UniProt P31751)", "sequence (P31751 whole entry, looked up)": "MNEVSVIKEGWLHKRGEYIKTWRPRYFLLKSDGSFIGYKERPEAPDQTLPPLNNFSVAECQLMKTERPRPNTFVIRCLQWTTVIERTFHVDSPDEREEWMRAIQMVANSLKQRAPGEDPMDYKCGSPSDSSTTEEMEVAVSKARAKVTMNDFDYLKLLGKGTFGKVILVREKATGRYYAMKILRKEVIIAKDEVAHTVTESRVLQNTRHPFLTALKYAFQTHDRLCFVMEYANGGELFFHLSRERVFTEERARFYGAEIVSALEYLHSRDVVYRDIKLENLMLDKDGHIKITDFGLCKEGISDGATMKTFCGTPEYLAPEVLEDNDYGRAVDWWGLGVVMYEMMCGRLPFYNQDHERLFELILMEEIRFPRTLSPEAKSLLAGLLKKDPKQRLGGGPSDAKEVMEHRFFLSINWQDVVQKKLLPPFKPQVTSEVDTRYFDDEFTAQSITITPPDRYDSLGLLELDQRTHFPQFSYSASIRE", "test": "radiometric filter-binding kinase assay, Kinase HotSpot", "conditions": "compound 0.5 µM; ATP 10 µM", "units": {"residual activity": "%"}, "values": [
      {"smiles": "N#CCCc1ccc2c(c1)-c1[nH]c3ccc([N+](=O)[O-])cc3c1CC(=O)N2", "residual activity": 100},
      {"smiles": "O=c1c2ccccc2[nH]c(=S)n1CCN1CCC(=C(c2ccc(F)cc2)c2ccc(F)cc2)CC1", "residual activity": 101},
      {"smiles": "Nc1ncnc2c1cnn2-c1ccccc1", "residual activity": 102},
      {"smiles": "O=C(c1ccccc1)c1ccc(N2CCOCC2)cc1O", "residual activity": 97.9}
    ]},
    {"biological_target": "CDC42BPB (human) (UniProt Q9Y5S2)", "test": "radiometric filter-binding kinase assay, Kinase HotSpot", "conditions": "compound 0.5 µM; ATP 10 µM", "units": {"residual activity": "%"}, "values": [
      {"smiles": "N#CCCc1ccc2c(c1)-c1[nH]c3ccc([N+](=O)[O-])cc3c1CC(=O)N2", "residual activity": 54.1},
      {"smiles": "O=c1c2ccccc2[nH]c(=S)n1CCN1CCC(=C(c2ccc(F)cc2)c2ccc(F)cc2)CC1", "residual activity": 106},
      {"smiles": "Nc1ncnc2c1cnn2-c1ccccc1", "residual activity": 96.7},
      {"smiles": "O=C(c1ccccc1)c1ccc(N2CCOCC2)cc1O", "residual activity": 90.9}
    ]},
    {"biological_target": "CDK5 CDK5R1 p35 (human) (UniProt Q00535+Q15078)", "test": "radiometric filter-binding kinase assay, Kinase HotSpot", "conditions": "compound 0.5 µM; ATP 10 µM", "units": {"residual activity": "%"}, "values": [
      {"smiles": "N#CCCc1ccc2c(c1)-c1[nH]c3ccc([N+](=O)[O-])cc3c1CC(=O)N2", "residual activity": 2.6},
      {"smiles": "O=c1c2ccccc2[nH]c(=S)n1CCN1CCC(=C(c2ccc(F)cc2)c2ccc(F)cc2)CC1", "residual activity": 101},
      {"smiles": "Nc1ncnc2c1cnn2-c1ccccc1", "residual activity": 99.2},
      {"smiles": "O=C(c1ccccc1)c1ccc(N2CCOCC2)cc1O", "residual activity": 97}
    ]},
    {"biological_target": "CHUK (human) (UniProt O15111)", "sequence (O15111 whole entry, looked up)": "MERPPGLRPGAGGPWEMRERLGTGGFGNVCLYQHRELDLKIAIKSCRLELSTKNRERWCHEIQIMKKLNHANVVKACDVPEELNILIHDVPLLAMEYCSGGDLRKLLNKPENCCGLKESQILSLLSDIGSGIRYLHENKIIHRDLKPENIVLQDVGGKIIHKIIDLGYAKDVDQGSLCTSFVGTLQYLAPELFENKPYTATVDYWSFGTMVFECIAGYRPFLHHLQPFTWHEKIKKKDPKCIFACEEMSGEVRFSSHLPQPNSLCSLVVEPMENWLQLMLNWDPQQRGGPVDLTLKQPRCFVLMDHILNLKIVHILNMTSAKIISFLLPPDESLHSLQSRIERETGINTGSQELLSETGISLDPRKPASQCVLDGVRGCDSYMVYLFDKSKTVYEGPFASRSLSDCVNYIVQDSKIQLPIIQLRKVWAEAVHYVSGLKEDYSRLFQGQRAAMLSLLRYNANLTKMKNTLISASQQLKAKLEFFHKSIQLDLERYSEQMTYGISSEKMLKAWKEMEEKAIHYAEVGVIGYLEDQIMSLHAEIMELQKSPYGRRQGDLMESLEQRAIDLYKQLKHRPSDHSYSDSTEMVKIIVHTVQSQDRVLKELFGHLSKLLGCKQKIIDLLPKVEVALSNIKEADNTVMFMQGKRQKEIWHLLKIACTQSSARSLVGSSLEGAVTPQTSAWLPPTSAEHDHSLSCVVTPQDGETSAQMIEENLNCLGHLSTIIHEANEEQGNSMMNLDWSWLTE", "test": "radiometric filter-binding kinase assay, Kinase HotSpot", "conditions": "compound 0.5 µM; ATP 10 µM", "units": {"residual activity": "%"}, "values": [
      {"smiles": "N#CCCc1ccc2c(c1)-c1[nH]c3ccc([N+](=O)[O-])cc3c1CC(=O)N2", "residual activity": 105},
      {"smiles": "O=c1c2ccccc2[nH]c(=S)n1CCN1CCC(=C(c2ccc(F)cc2)c2ccc(F)cc2)CC1", "residual activity": 95},
      {"smiles": "Nc1ncnc2c1cnn2-c1ccccc1", "residual activity": 92.6},
      {"smiles": "O=C(c1ccccc1)c1ccc(N2CCOCC2)cc1O", "residual activity": 101}
    ]},
    {"biological_target": "CLK4 (human) (UniProt Q9HAZ1)", "sequence (Q9HAZ1 whole entry, looked up)": "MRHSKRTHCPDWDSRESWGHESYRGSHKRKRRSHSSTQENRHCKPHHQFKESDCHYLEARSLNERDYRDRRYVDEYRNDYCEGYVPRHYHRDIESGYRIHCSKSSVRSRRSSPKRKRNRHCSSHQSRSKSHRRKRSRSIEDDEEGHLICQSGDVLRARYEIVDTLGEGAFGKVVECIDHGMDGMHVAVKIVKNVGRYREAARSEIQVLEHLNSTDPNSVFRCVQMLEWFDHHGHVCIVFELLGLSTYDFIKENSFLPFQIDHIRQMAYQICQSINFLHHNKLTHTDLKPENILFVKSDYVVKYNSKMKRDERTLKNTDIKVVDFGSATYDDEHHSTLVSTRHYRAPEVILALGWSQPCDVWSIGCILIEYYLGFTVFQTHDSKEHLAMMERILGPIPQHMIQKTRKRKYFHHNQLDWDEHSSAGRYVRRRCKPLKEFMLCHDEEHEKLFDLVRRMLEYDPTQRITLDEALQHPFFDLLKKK", "test": "radiometric filter-binding kinase assay, Kinase HotSpot", "conditions": "compound 0.5 µM; ATP 10 µM", "units": {"residual activity": "%"}, "values": [
      {"smiles": "N#CCCc1ccc2c(c1)-c1[nH]c3ccc([N+](=O)[O-])cc3c1CC(=O)N2", "residual activity": 77.1},
      {"smiles": "O=c1c2ccccc2[nH]c(=S)n1CCN1CCC(=C(c2ccc(F)cc2)c2ccc(F)cc2)CC1", "residual activity": 103},
      {"smiles": "Nc1ncnc2c1cnn2-c1ccccc1", "residual activity": 76.7},
      {"smiles": "O=C(c1ccccc1)c1ccc(N2CCOCC2)cc1O", "residual activity": 101}
    ]},
    {"biological_target": "CSNK1G2 (human) (UniProt P78368)", "sequence (P78368 whole entry, looked up)": "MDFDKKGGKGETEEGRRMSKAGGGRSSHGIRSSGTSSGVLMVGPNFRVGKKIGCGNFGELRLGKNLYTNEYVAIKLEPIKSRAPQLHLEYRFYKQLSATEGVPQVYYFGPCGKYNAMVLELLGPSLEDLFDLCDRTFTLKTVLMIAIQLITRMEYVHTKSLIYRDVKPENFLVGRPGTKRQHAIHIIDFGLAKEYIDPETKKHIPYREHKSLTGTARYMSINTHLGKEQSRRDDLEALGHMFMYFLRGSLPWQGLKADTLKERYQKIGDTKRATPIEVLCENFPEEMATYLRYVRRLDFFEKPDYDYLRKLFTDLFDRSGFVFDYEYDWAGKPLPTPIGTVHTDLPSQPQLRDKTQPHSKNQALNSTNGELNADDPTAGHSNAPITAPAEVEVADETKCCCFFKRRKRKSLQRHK", "test": "radiometric filter-binding kinase assay, Kinase HotSpot", "conditions": "compound 0.5 µM; ATP 10 µM", "units": {"residual activity": "%"}, "values": [
      {"smiles": "N#CCCc1ccc2c(c1)-c1[nH]c3ccc([N+](=O)[O-])cc3c1CC(=O)N2", "residual activity": 84.8},
      {"smiles": "O=c1c2ccccc2[nH]c(=S)n1CCN1CCC(=C(c2ccc(F)cc2)c2ccc(F)cc2)CC1", "residual activity": 98.6},
      {"smiles": "Nc1ncnc2c1cnn2-c1ccccc1", "residual activity": 95.1},
      {"smiles": "O=C(c1ccccc1)c1ccc(N2CCOCC2)cc1O", "residual activity": 96.1}
    ]},
    {"biological_target": "CSNK2A1 (human) (UniProt P68400)", "sequence (P68400 whole entry, looked up)": "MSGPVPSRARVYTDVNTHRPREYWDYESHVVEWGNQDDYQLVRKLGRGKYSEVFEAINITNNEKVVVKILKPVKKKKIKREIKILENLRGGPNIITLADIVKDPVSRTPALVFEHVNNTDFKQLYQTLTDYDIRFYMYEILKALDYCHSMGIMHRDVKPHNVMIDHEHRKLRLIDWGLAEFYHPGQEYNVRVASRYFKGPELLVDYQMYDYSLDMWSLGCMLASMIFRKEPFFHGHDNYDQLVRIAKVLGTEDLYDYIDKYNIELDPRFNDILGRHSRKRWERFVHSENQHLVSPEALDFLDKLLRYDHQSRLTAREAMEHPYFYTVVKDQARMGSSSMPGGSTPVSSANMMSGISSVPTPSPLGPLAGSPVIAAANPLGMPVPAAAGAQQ", "test": "radiometric filter-binding kinase assay, Kinase HotSpot", "conditions": "compound 0.5 µM; ATP 10 µM", "units": {"residual activity": "%"}, "values": [
      {"smiles": "N#CCCc1ccc2c(c1)-c1[nH]c3ccc([N+](=O)[O-])cc3c1CC(=O)N2", "residual activity": 91.2},
      {"smiles": "O=c1c2ccccc2[nH]c(=S)n1CCN1CCC(=C(c2ccc(F)cc2)c2ccc(F)cc2)CC1", "residual activity": 97.9},
      {"smiles": "Nc1ncnc2c1cnn2-c1ccccc1", "residual activity": 94.4},
      {"smiles": "O=C(c1ccccc1)c1ccc(N2CCOCC2)cc1O", "residual activity": 91.1}
    ]},
    {"biological_target": "DDR2 (human) (UniProt Q16832)", "sequence (Q16832 whole entry, looked up)": "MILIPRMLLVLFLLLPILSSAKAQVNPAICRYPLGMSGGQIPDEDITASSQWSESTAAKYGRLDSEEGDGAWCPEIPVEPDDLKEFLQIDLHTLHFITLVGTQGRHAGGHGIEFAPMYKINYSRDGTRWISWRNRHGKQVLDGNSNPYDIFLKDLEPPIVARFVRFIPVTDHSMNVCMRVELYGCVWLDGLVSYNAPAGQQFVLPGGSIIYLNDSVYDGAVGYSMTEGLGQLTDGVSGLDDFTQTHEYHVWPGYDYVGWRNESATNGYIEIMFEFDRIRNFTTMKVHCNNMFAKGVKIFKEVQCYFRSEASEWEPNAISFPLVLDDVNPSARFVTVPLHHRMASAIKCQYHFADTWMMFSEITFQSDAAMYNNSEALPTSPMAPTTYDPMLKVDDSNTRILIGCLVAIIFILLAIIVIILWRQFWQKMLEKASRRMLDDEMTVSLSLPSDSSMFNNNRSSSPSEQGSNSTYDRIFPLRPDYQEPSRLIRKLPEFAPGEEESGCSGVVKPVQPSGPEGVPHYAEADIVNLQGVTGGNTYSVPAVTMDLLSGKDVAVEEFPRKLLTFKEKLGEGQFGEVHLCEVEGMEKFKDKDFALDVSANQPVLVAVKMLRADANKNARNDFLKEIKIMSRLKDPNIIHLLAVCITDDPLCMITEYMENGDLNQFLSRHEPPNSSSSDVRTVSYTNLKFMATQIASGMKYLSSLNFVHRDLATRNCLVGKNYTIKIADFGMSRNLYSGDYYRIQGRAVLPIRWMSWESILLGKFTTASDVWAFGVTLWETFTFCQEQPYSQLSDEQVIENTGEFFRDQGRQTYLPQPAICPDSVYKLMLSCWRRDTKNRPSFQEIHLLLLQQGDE", "test": "radiometric filter-binding kinase assay, Kinase HotSpot", "conditions": "compound 0.5 µM; ATP 10 µM", "units": {"residual activity": "%"}, "values": [
      {"smiles": "N#CCCc1ccc2c(c1)-c1[nH]c3ccc([N+](=O)[O-])cc3c1CC(=O)N2", "residual activity": 105},
      {"smiles": "O=c1c2ccccc2[nH]c(=S)n1CCN1CCC(=C(c2ccc(F)cc2)c2ccc(F)cc2)CC1", "residual activity": 97.6},
      {"smiles": "Nc1ncnc2c1cnn2-c1ccccc1", "residual activity": 92.3},
      {"smiles": "O=C(c1ccccc1)c1ccc(N2CCOCC2)cc1O", "residual activity": 103}
    ]},
    {"biological_target": "DMPK (human) (UniProt Q09013)", "sequence (Q09013 whole entry, looked up)": "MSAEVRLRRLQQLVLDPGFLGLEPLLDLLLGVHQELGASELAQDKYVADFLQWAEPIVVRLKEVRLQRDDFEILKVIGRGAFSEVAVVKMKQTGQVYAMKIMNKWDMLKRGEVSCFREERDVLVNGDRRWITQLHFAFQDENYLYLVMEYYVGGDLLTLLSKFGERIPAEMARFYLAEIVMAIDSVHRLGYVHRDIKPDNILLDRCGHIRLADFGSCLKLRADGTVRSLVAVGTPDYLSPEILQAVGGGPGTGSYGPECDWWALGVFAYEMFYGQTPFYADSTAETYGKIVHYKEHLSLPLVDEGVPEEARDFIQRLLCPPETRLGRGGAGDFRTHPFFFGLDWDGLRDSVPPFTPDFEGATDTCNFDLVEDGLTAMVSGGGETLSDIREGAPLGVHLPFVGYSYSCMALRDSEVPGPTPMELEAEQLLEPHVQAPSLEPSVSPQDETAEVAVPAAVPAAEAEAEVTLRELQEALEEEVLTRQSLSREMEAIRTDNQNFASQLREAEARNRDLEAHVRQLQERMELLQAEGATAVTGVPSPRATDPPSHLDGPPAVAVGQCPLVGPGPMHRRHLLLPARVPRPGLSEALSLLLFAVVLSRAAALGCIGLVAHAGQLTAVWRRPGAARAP", "test": "radiometric filter-binding kinase assay, Kinase HotSpot", "conditions": "compound 0.5 µM; ATP 10 µM", "units": {"residual activity": "%"}, "values": [
      {"smiles": "N#CCCc1ccc2c(c1)-c1[nH]c3ccc([N+](=O)[O-])cc3c1CC(=O)N2", "residual activity": 89.8},
      {"smiles": "O=c1c2ccccc2[nH]c(=S)n1CCN1CCC(=C(c2ccc(F)cc2)c2ccc(F)cc2)CC1", "residual activity": 108},
      {"smiles": "Nc1ncnc2c1cnn2-c1ccccc1", "residual activity": 106},
      {"smiles": "O=C(c1ccccc1)c1ccc(N2CCOCC2)cc1O", "residual activity": 98.9}
    ]},
    {"biological_target": "DYRK2 (human) (UniProt Q92630)", "sequence (Q92630 whole entry, looked up)": "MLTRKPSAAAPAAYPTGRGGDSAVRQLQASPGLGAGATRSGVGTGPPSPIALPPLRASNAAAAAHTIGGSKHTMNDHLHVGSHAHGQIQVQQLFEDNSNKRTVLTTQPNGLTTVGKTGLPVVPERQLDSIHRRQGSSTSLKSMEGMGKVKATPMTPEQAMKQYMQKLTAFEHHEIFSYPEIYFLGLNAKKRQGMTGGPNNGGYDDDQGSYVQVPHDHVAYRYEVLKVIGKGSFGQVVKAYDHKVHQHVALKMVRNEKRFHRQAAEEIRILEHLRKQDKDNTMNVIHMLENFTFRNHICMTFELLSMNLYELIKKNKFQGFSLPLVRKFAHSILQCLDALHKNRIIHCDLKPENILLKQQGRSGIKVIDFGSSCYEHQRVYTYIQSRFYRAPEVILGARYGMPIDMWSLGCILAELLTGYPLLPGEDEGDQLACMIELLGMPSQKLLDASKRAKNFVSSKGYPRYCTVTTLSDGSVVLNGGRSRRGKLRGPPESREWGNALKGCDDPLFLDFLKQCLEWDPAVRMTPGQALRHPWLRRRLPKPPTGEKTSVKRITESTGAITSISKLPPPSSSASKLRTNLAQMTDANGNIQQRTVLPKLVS", "test": "radiometric filter-binding kinase assay, Kinase HotSpot", "conditions": "compound 0.5 µM; ATP 10 µM", "units": {"residual activity": "%"}, "values": [
      {"smiles": "N#CCCc1ccc2c(c1)-c1[nH]c3ccc([N+](=O)[O-])cc3c1CC(=O)N2", "residual activity": 46.8},
      {"smiles": "O=c1c2ccccc2[nH]c(=S)n1CCN1CCC(=C(c2ccc(F)cc2)c2ccc(F)cc2)CC1", "residual activity": 95.4},
      {"smiles": "Nc1ncnc2c1cnn2-c1ccccc1", "residual activity": 95.6},
      {"smiles": "O=C(c1ccccc1)c1ccc(N2CCOCC2)cc1O", "residual activity": 96.8}
    ]},
    {"biological_target": "EPHA3 (human) (UniProt P29320)", "test": "radiometric filter-binding kinase assay, Kinase HotSpot", "conditions": "compound 0.5 µM; ATP 10 µM", "units": {"residual activity": "%"}, "values": [
      {"smiles": "N#CCCc1ccc2c(c1)-c1[nH]c3ccc([N+](=O)[O-])cc3c1CC(=O)N2", "residual activity": 93.9},
      {"smiles": "O=c1c2ccccc2[nH]c(=S)n1CCN1CCC(=C(c2ccc(F)cc2)c2ccc(F)cc2)CC1", "residual activity": 101}
    ]}
  ]
}
